Measured values taken from ChEMBL document CHEMBL5346872 (Eur J Med Chem, 2023).
The source made the active and inactive calls. The calls are words filed in the database; no cut-off is given here.

Assays:
[1] = Toxicity in BALB/c mouse assessed as body weight loss at 30 mg/kg, ip administered once daily measured after 14 days; format: organism-based; details: in vivo, 336 h, time 14 day
[2] = tested on: CT26; experiment: Antitumor activity against mouse CT26 cells implanted in BALB/c mouse assessed as tumor growth inhibition at 30 mg/kg, ip administered once daily and measured on day 14; format: functional; details: CT26, 336 h, time 14 day, read-out: TGI
[3] = tested on: CT26; experiment: Antiproliferative activity against mouse CT26 cells assessed as reduction in cell viability incubated for 48 hrs by CCK-8 assay; details: CT26, 48 h
[4] = target: T1, beta-catenin-B-cell lymphoma 9 protein complex (Homo sapiens, UniProt P35222); experiment: Inhibition of beta-catenin (unknown origin) to BCL9-FAM (unknown origin) protein-protein interaction preincubated for 2 hrs followed by BCL9 addition and measured after 2 hrs by fluorescence polarization assay; format: protein-complex assay
T1 sequence (P35222 whole entry): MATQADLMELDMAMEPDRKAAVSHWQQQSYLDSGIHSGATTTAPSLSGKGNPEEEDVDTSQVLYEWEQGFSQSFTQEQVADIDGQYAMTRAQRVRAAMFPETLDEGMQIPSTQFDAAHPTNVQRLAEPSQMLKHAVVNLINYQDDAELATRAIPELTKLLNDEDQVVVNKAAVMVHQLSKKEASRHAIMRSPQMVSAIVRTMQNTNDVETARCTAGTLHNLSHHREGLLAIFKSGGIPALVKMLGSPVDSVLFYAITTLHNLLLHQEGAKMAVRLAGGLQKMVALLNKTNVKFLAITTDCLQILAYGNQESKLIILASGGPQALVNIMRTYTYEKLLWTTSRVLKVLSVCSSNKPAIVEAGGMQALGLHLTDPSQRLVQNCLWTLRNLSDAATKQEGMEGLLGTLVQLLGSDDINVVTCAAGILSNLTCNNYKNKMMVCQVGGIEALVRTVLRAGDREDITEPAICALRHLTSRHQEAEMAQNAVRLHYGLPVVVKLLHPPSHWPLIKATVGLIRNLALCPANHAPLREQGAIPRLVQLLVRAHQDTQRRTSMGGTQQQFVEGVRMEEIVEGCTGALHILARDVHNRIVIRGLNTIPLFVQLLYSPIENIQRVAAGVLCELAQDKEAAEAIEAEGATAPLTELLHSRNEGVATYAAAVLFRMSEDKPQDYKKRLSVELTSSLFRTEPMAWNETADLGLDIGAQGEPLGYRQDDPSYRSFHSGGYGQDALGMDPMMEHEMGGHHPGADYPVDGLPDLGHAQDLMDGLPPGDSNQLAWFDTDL
T1 sequence (O00512 whole entry): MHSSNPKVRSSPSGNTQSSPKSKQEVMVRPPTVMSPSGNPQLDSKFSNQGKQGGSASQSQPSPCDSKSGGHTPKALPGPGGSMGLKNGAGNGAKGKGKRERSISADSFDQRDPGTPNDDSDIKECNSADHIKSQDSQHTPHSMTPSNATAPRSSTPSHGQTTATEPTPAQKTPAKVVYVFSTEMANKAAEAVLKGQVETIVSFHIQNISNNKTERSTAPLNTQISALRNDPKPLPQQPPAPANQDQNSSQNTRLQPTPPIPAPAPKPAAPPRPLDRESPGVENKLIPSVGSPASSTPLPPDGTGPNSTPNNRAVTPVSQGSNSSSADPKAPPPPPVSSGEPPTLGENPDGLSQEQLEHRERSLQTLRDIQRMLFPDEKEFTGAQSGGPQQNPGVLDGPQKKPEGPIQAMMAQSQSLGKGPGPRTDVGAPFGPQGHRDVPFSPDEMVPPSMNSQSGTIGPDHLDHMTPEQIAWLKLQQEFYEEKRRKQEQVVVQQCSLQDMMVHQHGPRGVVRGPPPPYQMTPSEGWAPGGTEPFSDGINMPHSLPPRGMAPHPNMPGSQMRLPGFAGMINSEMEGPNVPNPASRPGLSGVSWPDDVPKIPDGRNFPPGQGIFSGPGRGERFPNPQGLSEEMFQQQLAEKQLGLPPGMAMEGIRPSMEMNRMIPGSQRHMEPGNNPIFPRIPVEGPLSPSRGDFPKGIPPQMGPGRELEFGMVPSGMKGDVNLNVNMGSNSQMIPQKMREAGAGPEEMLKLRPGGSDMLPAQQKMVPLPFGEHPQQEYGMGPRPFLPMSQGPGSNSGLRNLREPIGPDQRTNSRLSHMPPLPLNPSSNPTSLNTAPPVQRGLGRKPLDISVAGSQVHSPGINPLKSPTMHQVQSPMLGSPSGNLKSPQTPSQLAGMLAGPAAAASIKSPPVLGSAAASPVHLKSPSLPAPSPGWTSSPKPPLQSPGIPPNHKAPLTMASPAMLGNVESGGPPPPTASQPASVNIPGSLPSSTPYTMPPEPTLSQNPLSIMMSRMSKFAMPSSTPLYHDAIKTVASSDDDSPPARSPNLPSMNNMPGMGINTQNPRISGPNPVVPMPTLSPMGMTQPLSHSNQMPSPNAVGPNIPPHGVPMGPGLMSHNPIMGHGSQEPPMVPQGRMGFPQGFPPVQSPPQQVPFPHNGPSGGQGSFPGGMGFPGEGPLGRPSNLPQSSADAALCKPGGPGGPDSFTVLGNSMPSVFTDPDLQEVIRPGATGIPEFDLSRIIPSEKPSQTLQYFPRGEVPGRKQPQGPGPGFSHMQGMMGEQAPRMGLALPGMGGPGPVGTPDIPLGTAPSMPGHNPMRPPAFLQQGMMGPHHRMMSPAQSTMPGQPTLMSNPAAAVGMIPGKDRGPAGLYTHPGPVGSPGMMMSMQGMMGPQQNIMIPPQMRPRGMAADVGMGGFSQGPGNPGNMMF

[5] = Inhibition of Wnt/beta-catenin signaling in mouse CT26 cells assessed as reduction in Axin2 expression incubated for 24 hrs by qPCR analysis; details: CT26, 24 h
[6] = tested on: RKO; experiment: Antiproliferative activity against human RKO cells assessed as reduction in cell viability incubated for 48 hrs by CCK8 assay
[7] = tested on: CT26; experiment: Antitumor activity against mouse CT26 cells implanted in BALB/c mouse assessed as downregulation of interleukin-10 gene expression at 30 mg/kg, ip administered once daily and measured on day 14 by qPCR analysis; format: functional, organism-based; details: time 14.0 day
[8] = tested on: CT26; experiment: Antitumor activity against mouse CT26 cells implanted in BALB/c mouse assessed as increase in granzyme B expression at 30 mg/kg, ip administered once daily and measured on day 14 by qPCR analysis; format: functional, organism-based; details: time 14.0 day
[9] = Drug concentration in human HCT-116 cells assessed as retention ratio at 2 uM incubated for 24 hrs by HPLC-MS analysis; format: ADME, cell-based; details: hct-116, 24 h
[10] = tested on: CT26; experiment: Inhibition of Wnt/beta-catenin signaling in mouse CT26 cells assessed as reduction in Axin2 expression incubated for 24 hrs by Western blot analysis; format: cell-based; details: dose 5-20 µM
[11] = tested on: HEK293; experiment: Antiproliferative activity against HEK293 cells assessed as reduction in cell viability incubated for 48 hrs by CCK8 assay; details: Homo sapiens, HEK293, 48 h
[12] = Inhibition of Wnt/beta-catenin signaling in human HCT116 cells incubated for 24 hrs by TCF/LEF reporter assay; details: HCT-116, 24 h
[13] = Inhibition of Wnt/beta-catenin signaling in human HCT-116 cells assessed as reduction in Axin2 expression incubated for 24 hrs by qPCR analysis; details: HCT-116, 24 h
[14] = tested on: CT26; experiment: Induction of apoptosis in mouse CT26 cells assessed as early apoptosis at 5 to 40 uM incubated for 24 hrs by annexin V and PI staining based flow cytometry analysis; format: functional, cell-based; details: dose 5-40 µM
[15] = tested on: CT26; details: Mus musculus, dose 30.0 mg/kg, route ip, time 14.0 day
Description: In vivo inhibition of Wnt/beta-catenin signaling in mouse CT26 cells implanted in BALB/c mouse assessed as reduction in Axin2 expression at 30 mg/kg, ip administered once daily and measured on day 14 by qPCR analysis

[16] = tested on: HCT-116; experiment: Antiproliferative activity against human HCT-116 cells assessed as reduction in cell viability incubated for 48 hrs by CCK8 assay; details: HCT-116, 48 h
[17] = tested on: CT26; experiment: Antitumor activity against mouse CT26 cells implanted in BALB/c mouse assessed as induction of immune microenvironment at 30 mg/kg, ip administered once daily and measured on day 14 by qPCR analysis; format: functional, organism-based; details: time 14.0 day
[18] = tested on: CT26; experiment: Induction of apoptosis in mouse CT26 cells assessed as late apoptosis at 5 to 40 uM incubated for 24 hrs by annexin V and PI staining based flow cytometry analysis; format: functional, cell-based; details: dose 5-40 µM
[19] = Induction of immune microenvironment in BALB/c mouse spleen assessed as increase in granzyme B at 5 to 10 uM after 24 hrs by flow cytometry analysis (reference value: 16.7 %); format: functional; details: dose 5-10 µM
[20] = Drug concentration in human HCT-116 cells at 2 uM incubated for 24 hrs by HPLC-MS analysis; format: ADME, cell-based; details: hct-116, 24 h
[21] = Inhibition of Wnt/beta-catenin signaling in BCL9 knockdown mouse CT26 cells assessed as reduction in Axin2 expression incubated for 24 hrs by qPCR analysis; details: CT26, 24 h

With `O=C1[C@H](Cc2ccc(O)cc2)N2C(=O)CCN(C(=O)NCc3ccccc3)[C@H]2CN1Cc1cccc2ccccc12` the Activity [1] was “Non-Toxic” and the inhibition in vivo at 30 mg/kg [2] was 40.8%.

In the case of `O=c1c(O)c(-c2ccc(O)c(OCCN3CCOCC3)c2)oc2cc(O)cc(O)c12`, the IC50 [3] is reported as 9.96 µM, the IC50 [4] is reported as 30.2 µM and the IC50 [5] is reported as 38.4 µM.

Molecule `O=c1c(O)c(-c2ccc(O)c(O)c2)oc2cc(OCCCN3CCOCC3)cc(O)c12` has an IC50 [4] of 12.3 µM.

`CCN(CC)CCCOc1cc(-c2oc3cc(O)cc(O)c3c(=O)c2O)ccc1O` showed an IC50 [3] of 23.7 µM, an IC50 [4] of 11.7 µM and an IC50 [5] of 11.2 µM.

In the case of `CN1CCN(CCCOc2cc(-c3oc4cc(O)cc(O)c4c(=O)c3O)ccc2O)CC1`, the IC50 [6] is reported as 26.7 µM, the Activity [7] is reported as “Active” and the Activity [8] is reported as “Active”. The Drug uptake [9] was 31.31%, the inhibition [10] was “Dose-Dependent Effect” and the IC50 [11] was 17.7 µM. The IC50 [12] was 15.2 µM, the IC50 [13] was 9.71 µM and the Activity [14] was “Active”. The inhibition [15] was “Active”, the IC50 [16] was 4.4 µM and the Activity [17] was “Active”. For the same molecule, the IC50 [3] was 3.21 µM, the Activity [1] was “Non-Toxic” and the Activity [18] was “Active”. For the same molecule, the Activity [19] was 31.1%, the inhibition in vivo at 30 mg/kg [2] was 81.4% and the IC50 [5] was 2.81 µM. The Drug uptake [20] was 0.63 µM and the IC50 [21] was 27.9 µM.

With `O=c1c(O)c(-c2ccc(O)c(OCCCN3CCOCC3)c2)oc2cc(O)cc(O)c12` the IC50 [3] was 7.85 µM and the IC50 [5] was 6.29 µM.

`O=c1c(O)c(-c2ccc(O)c(O)c2)oc2c(-c3ccccc3)c(O)cc(O)c12` gave an IC50 [4] of 18.7 µM.

`CN1CCN(CCOc2cc(-c3oc4cc(O)cc(O)c4c(=O)c3O)ccc2O)CC1` showed an IC50 [3] of 11.7 µM, an IC50 [4] of 78.9 µM and an IC50 [5] of 17.8 µM.

`O=c1c(O)c(-c2ccc(O)c(OCCN3CCCCCC3)c2)oc2cc(O)cc(O)c12` showed an IC50 [3] of 7.04 µM, an IC50 [4] of 37.4 µM and an IC50 [5] of 13.9 µM.

With `COc1cc(OCCCN2CCN(C)CC2)c2c(=O)c(O)c(-c3ccc(O)c(O)c3)oc2c1` the IC50 [4] was 9.69 µM.

In the case of `O=c1c(O)c(-c2ccc(O)c(OCCN3CCCC3)c2)oc2cc(O)cc(O)c12`, the IC50 [3] is reported as 8.2 µM, the IC50 [4] is reported as 56.8 µM and the IC50 [5] is reported as 17.6 µM.

For `CN1CCN(CCCOc2cc(O)c3c(=O)c(O)c(-c4ccc(O)c(O)c4)oc3c2)CC1`, the IC50 [4] was 9.13 µM.

Work on `O=c1c(O)c(-c2ccc(O)c(OCCCN3CCCCCC3)c2)oc2cc(O)cc(O)c12` yielded an IC50 [3] of 35 µM, an IC50 [4] of 20.1 µM and an IC50 [5] of 34.7 µM.

In the case of `O=c1c(O)c(-c2ccc(O)c(O)c2)oc2cc(O)cc(O)c12` [QUERCETIN], the inhibition [10] is reported as “Dose-Dependent Effect”, the IC50 [12] is reported as 4.71 µM and the IC50 [13] is reported as 3.57 µM. The IC50 [16] was 10.4 µM, the IC50 [3] was 14.4 µM and the Activity [1] was “Non-Toxic”. For the same molecule, the inhibition in vivo at 30 mg/kg [2] was 69.4%, the IC50 [5] was 7.7 µM and the IC50 [21] was 23.5 µM.

For `O=c1c(O)c(-c2ccc(O)c(OCCCN3CCCC3)c2)oc2cc(O)cc(O)c12`, the IC50 [3] was 6.26 µM, the IC50 [4] was 25.7 µM and the IC50 [5] was 19.2 µM.

For `COc1cc(OCCCN2CCOCC2)c2c(=O)c(O)c(-c3ccc(O)c(O)c3)oc2c1`, the IC50 [4] was 6.09 µM.

In the case of `O=c1c(O)c(-c2ccc(O)c(O)c2)oc2c(-c3ccc(O)cc3)c(O)cc(O)c12`, the IC50 [4] is reported as 4.46 µM.

In the case of `CCN(CC)CCOc1cc(-c2oc3cc(O)cc(O)c3c(=O)c2O)ccc1O`, the IC50 [3] is reported as 11.8 µM, the IC50 [4] is reported as 27.9 µM and the IC50 [5] is reported as 40.7 µM.

Work on `O=c1c(O)c(-c2ccc(O)c(OCCN3CCCCC3)c2)oc2cc(O)cc(O)c12` yielded an IC50 [3] of 8.67 µM, an IC50 [4] of 31.1 µM and an IC50 [5] of 23.1 µM.

Work on `O=c1c(O)c(-c2ccc(O)c(OCCCN3CCCCC3)c2)oc2cc(O)cc(O)c12` yielded an IC50 [3] of 7.18 µM, an IC50 [4] of 18.6 µM and an IC50 [5] of 29.7 µM.
